Assay results taken from US9593144B2, “FPR1 antagonist derivatives and use thereof” (CHANG GUNG UNIVERSITY, priority 2014, dated 2017).
Square brackets hold non-standard residues; d marks the D form. Peptide text beside a SMILES is read from it. * marks the point of attachment. Bz = O=C(c1ccccc1)*

Assays:
human neutrophils [1] = test: Cytotoxic test: lactate dehydrogenase (LDH) release from human neutrophils; assay type: cell-based
Experimental: FIGS. 1(a)-1(b) show the influences of HCH6-1 on releasing lactate dehydrogenase (LDH) from human neutrophils under the following experimental conditions. The suspension of neutrophils was reacted with different concentrations of candidate compounds for 15 min, or fixed concentrations of candidate compounds for various times. Also, 0.1% Triton X-100 was added to react for 30 min as a release amount of total lactate dehydrogenase (Total LDH), wherein the supernatant was subjected to centrifugation for 8 min, at 200 g and at 4° C., and then a lactate dehydrogenase reagent was added and kept in the dark and at room temperature for 30 min, and an absorbance at 492 nm was monitored. Results are measured based on Total LDH as 100%.

human neutrophils [2] = test: cells; assay type: cell-based; conditions: Neutrophil, mean ± SEM
Experimental: Degranulation of azurophilic granules was determined by elastase release as described above. Experiments were performed using MeO-Suc-[…]-nitroanilide as the elastase substrate. […] Results are expressed as the percentage of elastase release in the drug-free control group, DMSO. Tables 5 and 6 explore whether there is an anti-inflamatory effect in the dipeptide derivatives. Because ferricytochrome c cannot penetrate cell membranes, it reacts with superoxide anion extracellularly. Also, there are absorptive reactions at 550 nm, and differences among the absorptive reactions can be used to evaluate the influence on the release of superoxide anion. The elastase is released by degranulation as the neutrophil is activated. Tables 5 and 6 use the substrate, MeO-Suc-[…]-nitroanilide, with the specificity for reacting with the elastase so as to evaluate the influence of the candidate compound on the elastase release. Blood was taken from healthy human donors (20-32 years old) by venipuncture, following a protocol approved by the Institutional Review Board at Chang Gung Memorial Hospital. Neutrophils were isolated by a standard method of dextran sedimentation prior to centrifugation in a Ficoll Hypaque gradient and the hypotonic lysis of erythrocytes. […] The degranulation of azurophilic granules was determined by elastase release as described above. Experiments were performed using MeO-Suc-[…]-nitroanilide as the elastase substrate. Briefly, after supplementation with MeO-Suc-[…]-nitroanilide ([…] neutrophils (6×10^5 ml^-1) were equilibrated at 37° C. for 2 min and incubated with drugs for 5 min. […] The results are expressed as the percentage of elastase release in the drug-free control group.

[3] = test system: MAPKs (ERK, p38 and JNK) and Akt; test: Western blot: phosphorylation of MAPKs (ERK, p38, JNK) and Akt in fMLF-stimulated neutrophils; assay type: cell-based, human; conditions: HCH6-1 10 μM pre-processed 5 min; fMLF 3 nM, 30 sec
From the text: Mitogen-activated protein kinases (MAPKs) and the expression of Akt phosphorylation are closely related to the regulation of cell inflammatory response. By specific binding of antibodies, each compound's influence on protein expression activated by different signals was observed. As to neutrophils, MAPKs (ERIK, p38, and JNK) and Akt signal transduction pathways are involved in the regulation of superoxide anion generation and elastase release. It is can be seen from the above-mentioned experiments that HCH6-1 is capable of competitively inhibiting superoxide anion generation and elastase release. Whether downstream MAPKs and Akt signal transduction pathways of FPR1 were involved in the regulation of superoxide anion generation and elastase release is explored below.
The experimental conditions were as follows. HCH6-1 (10 μM) was pre-processed for 5 min, followed by stimulus of fMLF (3-30 nM) for 30 sec.

[4] = biological target: T1, formyl peptide receptor 1 (FPR1) (Homo sapiens, UniProt P21462); test: Receptor test: competition with fluorescent FNLFNYK for binding to FPR1 on human neutrophils; conditions: membranes of human neutrophils; read-out: inhibition of FNLFNYK bound to FPR1, IC50
T1 construct: the effect of FNLFNYK combined with FPR1 on the membranes of human neutrophils; endogenous in cells; host or cells: human neutrophils
T1 sequence (P21462 1-350): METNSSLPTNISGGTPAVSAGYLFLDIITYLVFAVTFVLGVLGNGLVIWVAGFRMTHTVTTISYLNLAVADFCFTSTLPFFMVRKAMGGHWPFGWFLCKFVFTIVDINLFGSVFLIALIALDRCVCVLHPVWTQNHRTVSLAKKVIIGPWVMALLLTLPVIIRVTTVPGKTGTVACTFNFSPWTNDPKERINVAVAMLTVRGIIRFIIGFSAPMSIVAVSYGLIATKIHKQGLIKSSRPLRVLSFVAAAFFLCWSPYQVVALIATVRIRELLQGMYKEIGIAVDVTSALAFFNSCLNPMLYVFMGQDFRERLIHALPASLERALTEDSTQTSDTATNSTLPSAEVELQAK
From the text: Membranes of human neutrophils contain fMLF receptor, formyl peptide receptor 1 (FPR1), with which formyl-NIe-Leu-Phe-NIe-Tyr-Lys (FNLFNYK) carrying the fluorescence property was combined with FPR1 and competed with the candidate compound for receptor binding. Therefore, by binding with the receptor, it was possible to further clarify whether the compound interacts with the receptor.

human neutrophils [5] = test: Expression of CD11b on the cell surface of activated neutrophils (flow cytometry); assay type: cell-based
Experimental: The suspension of neutrophils was mixed at 37° C. and pre-heated for 5 min, and then compounds with different concentrations for measurements were added. […] And the reaction termination is done by on-ice setting. The supernatant was removed after centrifugation, and make the cells suspension again in the balanced salt solution containing bovine serum albumin (BSA). Anti-CD11b with fluorescein isothiocyanate (FITC) labeling was added, and kept on ice and in the dark. Finally, a balanced salt solution was added to terminate the reaction. By means of the flow cytometer for detecting the anti-CD11b with fluorescein isothiocyanate (FITC) labeling, it is possible to further evaluate whether the candidate compounds had influence on CD11b expression on the cell membranes of activated neutrophils according to changes in fluorescence. […].

For `COC(=O)[C@@H](Cc1ccccc1)NC(=O)[C@H](Cc1c[nH]c2ccccc12)NC(=O)c1ccccc1` [Compound 3, N—(N-Benzoyl-L-tryptophanyl)-D-phenylalanine methyl ester] (Bz-Trp-[dF]-OMe), which “toxicity to cells (LDH release) during a long period” value (human neutrophils [1]; HCH6-1 30 μM, 120 min, FIG. 1(b)) is on record?
The value was “no significant toxicity”.

And the “toxicity to neutrophils (LDH release)” value (human neutrophils [1]; different concentrations, 15 min, FIG. 1(a))?
The value was “not the results of toxicity to the neutrophils”.

And the IC50 (human neutrophils [2]; WKYMVm, n = 4 or 8, Table 6, read-out: Elastase release WKYMVm IC50)?
Its IC50 is 5220 ± 700 nM.

What about the IC50 (human neutrophils [2]; WKYMVm/CB, n = 3, Table 4, read-out: WKYMVm/CB NE release (IC50)) of the same compound?
Its IC50 is 4610 ± 720 nM.

And the IC50 (human neutrophils [2]; fMLF, n = 4 or 8, Table 6, read-out: Elastase release fMLF IC50)?
The IC50 was 570 ± 70 nM.

And the IC50 (human neutrophils [2]; fMLF/CB, n = 3, Table 4, read-out: fMLF/CB NE release (IC50))?
Its IC50 is 600 ± 70 nM.

And the IC50 (human neutrophils [2]; fMLP/CB, n = 3, Table 1, read-out: Anti-inflammation NE release (IC50))?
The IC50 was 600 ± 70 nM.

And the “phosphorylation for MAPKs (ERK, p38 and JNK) and Akt” value [3]?
Its value is “significantly suppressed phosphorylation”.

What about the IC50 [4] of the same compound?
The IC50 was 2020 ± 340 nM.

And the IC50 (human neutrophils [5]; Homo sapiens, Neutrophil, stimulus of fMLF (30 nM)/CB, read-out: inhibition of CD11b expression on cell membranes, IC50)?
Its IC50 is 260 ± 50 nM.

And the “inhibition of CD11b expression on cell membranes” value (human neutrophils [5]; stimulus of IL-8 (100 nM), FIG. 2(n))?
Its value is “no inhibitory effects”.

What about the “inhibition of CD11b expression on cell membranes” value (human neutrophils [5]; stimulus of MMK1, FIG. 2(h)) of the same compound?
The value was “no inhibitory effects”.

What about the melting point of the same compound?
Its melting point is 174 to 176 °C.
